Paper PMC6010085, “Inhibition of protein tyrosine phosphatase (PTP1B) and α-glucosidase by geranylated flavonoids from Paulownia tomentosa” (Journal of Enzyme Inhibition and Medicinal Chemistry, 2017)
“Also recorded” adds a separate entry of the source. Where two headings read alike, the source gives them in different places.

Experiments:
[1] = biological target: α-glucosidase (EC 3.2.1.20. from Baker's Yeast) (Saccharomyces cerevisiae, UniProt P53341); assay: α-Glucosidase enzymatic assay (pNPG hydrolysis) and kinetic analysis; format: biochemical; settings: for α-Glucosidase type of inhibition: Lineweaver–Burk and Dixon plots; for Vmax / Kik/Kiv: α-glucosidase, pNPG; for Kik/Kiv: Yang's method
Protocol: The α-glucosidase inhibitory activity was measured using reported experimental method with slight modifications. Phosphate buffer [50 mM potassium phosphate (pH 6.8)] was used for the whole assay. p-nitrophenyl-α-D-glucopyranoside (pNPG) was used as substrate, whose concentration 1.2 mM was prepared in phosphate buffer. Stock solution of α-glucosidase (EC 3.2.1.20. from Baker’s Yeast) containing 0.45 units of enzyme was also prepared in phosphate buffer. DMSO was used as a solvent for dissolving the test compounds, which were then diluted to their respective concentrations. Enzymatic assay was performed by mixing 40 μl of substrate (final concentration 0.15 mM) with 10 μl of inhibitors/vehicle, 130 μl phosphate buffer and 20 μl of enzyme in 96 well plate. As a result of the catalytic reaction, p-nitrophenol was produced as a reaction product which was subsequently measured using spectra max M3 multi-mode microplate reader (Molecular Devices) at 37 °C, at 405 nm for 15 min. […] The experiments were performed in triplicate.
(§1) Lineweaver–Burk plots were used for the analysis of enzyme’s inhibitory kinetics, caused by the tested bioactive compounds, and its comparison was performed with the data collected in the absence of inhibitors. Steady-state rates were determined at different inhibitor concentrations and at changing concentrations of substrate, then enzyme inhibition mechanism and related kinetic parameters were determined. Where applicable, KI and KIS, the two inhibition constants, when inhibitor binds with either free enzyme or the complex of enzyme–substrate, were derived from secondary plots of the slopes of the straight lines and vertical intercept (1/V^appmax), versus inhibitors concentrations. Equations (1)–(3) are the representatives equations for derivation of KI and KIS, respectively.
(§2) To determine enzyme inhibition parameters, an experiment was performed having substrate concentrations range (pNPP; 0.4–1.6 mM, pNPG; 0.075–0.3 mM), and different concentrations of tested compound, as indicated. To find out each curve parameter, a nonlinear regression program was used for data analysis using sigma Plot. Similarly Km and Vmax were derived from Lineweaver–Burk plots. Kik and Kiv rate constants were calculated according to Equations (4) and (5) proposed by Yang’s method. While Excel was used for linear regression analysis. (4) Km=Km,0×(1+[I]/Kik) (5) Vm=[…]

[2] = biological target: T1, recombinant human protein tyrosine phosphate 1B (PTP1B, EC 3. 1. 3. 48) (Homo sapiens, UniProt P18031); assay: biochemical; format: biochemical; set-up: Vmax: unit not given here; settings: for PTP1B type of inhibition: Lineweaver–Burk / secondary plots; for Vmax / Kik/Kiv: pNPP; for Kik/Kiv: Yang's method
T1 sequence (P18031 1-435): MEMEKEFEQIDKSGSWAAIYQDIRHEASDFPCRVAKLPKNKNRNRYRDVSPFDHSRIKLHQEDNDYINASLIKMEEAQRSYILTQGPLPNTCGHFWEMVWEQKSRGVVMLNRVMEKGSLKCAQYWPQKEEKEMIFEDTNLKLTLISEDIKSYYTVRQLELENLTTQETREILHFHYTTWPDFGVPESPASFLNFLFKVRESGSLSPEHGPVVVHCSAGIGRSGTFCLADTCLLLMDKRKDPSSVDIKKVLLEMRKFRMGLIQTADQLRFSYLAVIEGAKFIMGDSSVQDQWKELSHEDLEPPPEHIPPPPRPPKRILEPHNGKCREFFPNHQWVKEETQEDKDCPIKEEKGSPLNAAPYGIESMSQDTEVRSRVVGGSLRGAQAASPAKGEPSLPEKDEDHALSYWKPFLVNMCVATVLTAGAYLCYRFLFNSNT
Protocol: The PTP1B inhibitory assay was carried out using a slight modification to literature reported method. p-nitrophenyl phosphate (pNPP) was used as a substrate for the measurement of enzyme activity. Buffer solution consisted of 25 mM Tris–HCl (pH 7.5), 2 mM β-mercaptoethanol, 1 mM (ethylenediaminetetraacetic acid) EDTA, and 1 mM dithiothreitol (DTT). The assay was performed by adding 10 μL test compound solution to 20 μL of enzyme (1 μg/ml), and then mixing with 40 μL of 4 mM pNPP in 130 μL of the given buffer using 96 well plate at 37 °C for 10 min. […] Lineweaver–Burk and Dixon plots methods were used to determine kinetic parameters. Sigma Plot (SPCC Inc., Chicago, IL) was used to calculate these parameters.
as §1, §2
First of all, the individual isolated constituents (1–8) from P. tomentosa fruits were tested in an in vitro PTP1B inhibition assay, using recombinant human protein tyrosine […] 1B (EC 3. 1. 3. 48)^1.

[3] = PTP1B, secondary plots, read-out: KI (inhibitor binds with free enzyme)
[4] = from Dixon plots, read-out: PTP1B Ki (inhibition constant)
[5] = pNPP substrate, triplicate, read-out: PTP1B IC50

Sequence of α-glucosidase (EC 3.2.1.20. from Baker's Yeast) (P53341 whole entry): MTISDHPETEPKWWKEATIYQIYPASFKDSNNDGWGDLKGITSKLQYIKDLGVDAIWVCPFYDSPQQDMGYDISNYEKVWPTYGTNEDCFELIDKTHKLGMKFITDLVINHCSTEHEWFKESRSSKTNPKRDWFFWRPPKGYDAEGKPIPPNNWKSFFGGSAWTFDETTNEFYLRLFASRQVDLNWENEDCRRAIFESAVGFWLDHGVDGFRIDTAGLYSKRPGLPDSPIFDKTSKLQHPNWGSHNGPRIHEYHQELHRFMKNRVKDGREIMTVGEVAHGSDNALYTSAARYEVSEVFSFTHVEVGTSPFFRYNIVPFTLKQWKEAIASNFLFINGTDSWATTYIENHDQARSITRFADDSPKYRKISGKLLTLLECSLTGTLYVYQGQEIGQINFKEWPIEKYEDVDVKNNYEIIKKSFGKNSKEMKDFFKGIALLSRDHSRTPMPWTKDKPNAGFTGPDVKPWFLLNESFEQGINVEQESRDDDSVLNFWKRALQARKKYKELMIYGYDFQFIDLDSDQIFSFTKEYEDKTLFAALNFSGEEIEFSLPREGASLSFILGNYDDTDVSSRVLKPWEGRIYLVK

Row | SMILES | α-Glucosidase type of inhibition [1] | PTP1B type of inhibition [2] | KIS (inhibitor binds with enzyme-substrate complex) ([2]; PTP1B, secondary plots) | Ki [2, 3] | Ki [2, 4] | IC50 [2, 5] | also measured
1 | CC(C)=CCC/C(C)=C/Cc1c(O)cc2c(c1O)C(=O)C[C@@H](c1ccc(O)cc1)O2 [Compound 1, mimulone] | Noncompetitive | Mixed TypeⅠ; also recorded: mixed type Ι; also recorded: Mixed Type I | 2.2 ± 0.1 µM | – | – | – | Vmax ([1]; [I] 12.5 µM): 0.117; Kik/Kiv ([1]; [I] 12.5 µM): 12.42; Vmax ([1]; [I] 25 µM): 0.082; Kik/Kiv ([1]; [I] 25 µM): 19.34; Vmax ([1]; [I] 50 µM): 0.054; Kik/Kiv ([1]; [I] 50 µM): 27.48; IC50 [2]: 1.9 ± 0.1 µM; Ki ([2]; KI (inhibitor binds with free enzyme), PTP1B, secondary plots, text without unit): 0.4 µM; Ki ([2]; PTP1B Ki (inhibition constant), from Dixon plots): 0.8 ± 0.1 µM; Vmax ([2]; PTP1B, [I] 0.78 µM): 0.012; Kik/Kiv ([2]; PTP1B, [I] 0.78 µM): 2.660; Vmax ([2]; PTP1B, [I] 1.56 µM): 0.009; Kik/Kiv ([2]; PTP1B, [I] 1.56 µM): 3.335; Vmax ([2]; PTP1B, [I] 3.13 µM): 0.007; Kik/Kiv ([2]; PTP1B, [I] 3.13 µM): 3.694; KIS (inhibitor binds with enzyme-substrate complex) ([2]; PTP1B, secondary plots, text without unit): 2.2; reversibility of PTP1B inhibition ([2]; initial velocity versus enzyme concentration at different inhibitor concentrations): reversible inhibitor
2 | COc1cc([C@@H]2CC(=O)c3c(cc(O)c(C/C=C(\C)CCC=C(C)C)c3O)O2)ccc1O [Compound 2, 3′-O-methyldiplacone] | Noncompetitive | Mixed TypeⅠ; also recorded: Mixed Type I | 3.7 ± 0.2 µM | 2.6 ± 0.1 µM | 3.2 ± 0.2 µM | 3.9 ± 0.3 µM | –
3 | COc1ccc([C@@H]2CC(=O)c3c(cc(O)c(C/C=C(\C)CCC=C(C)C)c3O)O2)cc1O [Compound 3, 4′-O-methyldiplacone] | Noncompetitive | Mixed TypeⅠ; also recorded: Mixed Type I | 10.1 ± 0.4 µM | 5.7 ± 0.3 µM | 8.1 ± 0.6 µM | 7.8 ± 0.6 µM | –
4 | COc1c(O)cc(C2CC(=O)c3c(cc(O)c(C/C=C(\C)CCC=C(C)C)c3O)O2)cc1O (stereo not drawn) [Compound 4, 6-geranyl-3′,5,5′,7-tetrahydroxy-4′-methoxyflavanone] | Noncompetitive | Mixed TypeⅠ; also recorded: Mixed Type I | 11.2 ± 0.4 µM | 5.5 ± 0.3 µM | 6.1 ± 0.5 µM | 5.9 ± 0.4 µM | –
5 | COc1cc([C@@H]2CC(=O)c3c(cc(O)c(C/C=C(\C)CCC=C(C)C)c3O)O2)cc(OC)c1O [Compound 5, 3′-O-Methyl-5′-O-methyldiplacone] | Noncompetitive | Mixed TypeⅠ; also recorded: Mixed Type I | 4.6 ± 0.2 µM | 2.8 ± 0.2 µM | 3.5 ± 0.3 µM | 3.8 ± 0.3 µM | –
6 | COc1cc([C@H]2Oc3cc(O)c(C/C=C(\C)CCC=C(C)C)c(O)c3C(=O)[C@@H]2O)ccc1O [Compound 6, 3′-O-methyldiplacol] | Noncompetitive | Mixed TypeⅠ; also recorded: mixed type Ι; also recorded: Mixed Type I | 5.2 ± 0.2 µM | 3.5 ± 0.2 µM | 3.8 ± 0.3 µM | 4.9 ± 0.5 µM | –
7 | COc1ccc([C@H]2Oc3cc(O)c(C/C=C(\C)CCC=C(C)C)c(O)c3C(=O)[C@@H]2O)cc1O [Compound 7, 4′-O-methyldiplacol] | Noncompetitive | Mixed TypeⅠ; also recorded: Mixed Type I | 13.7 ± 0.6 µM | 6.9 ± 0.4 µM | 7.9 ± 0.4 µM | 8.2 ± 0.6 µM | –
8 | COc1c(O)cc([C@H]2Oc3cc(O)c(C/C=C(\C)CCC=C(C)C)c(O)c3C(=O)[C@@H]2O)cc1O [Compound 8] | Noncompetitive | Mixed TypeⅠ; also recorded: Mixed Type I | 10.3 ± 0.5 µM | 5.9 ± 0.3 µM | 6.2 ± 0.4 µM | 6.6 ± 0.5 µM | –
9 | [Na+].[Na+].[Na+].[O]=[V]([O-])([O-])[O-] [NaVO4, reference compound] | – | – | – | – | – | – | IC50 ([1]; pNPG substrate, triplicate): > 200 µM
